{
  "source": "ChEMBL document CHEMBL5113413",
  "about": "“New peptidomimetic rhodesain inhibitors with improved selectivity towards human cathepsins” (Eur J Med Chem, 2022)",
  "key": {"Cathepsin B [1]": {"biological_target": "T1, Cathepsin B (Homo sapiens, UniProt P07858)", "experiment": "Inhibition of human Cathepsin B at 20 uM using Cbz-Phe-Arg-AMC as fluorogenic substrate by fluorometric assay"}, "Rhodesain": {"biological_target": "Rhodesain (Trypanosoma brucei rhodesiense, UniProt Q95PM0)", "sequence (Q95PM0 whole entry)": "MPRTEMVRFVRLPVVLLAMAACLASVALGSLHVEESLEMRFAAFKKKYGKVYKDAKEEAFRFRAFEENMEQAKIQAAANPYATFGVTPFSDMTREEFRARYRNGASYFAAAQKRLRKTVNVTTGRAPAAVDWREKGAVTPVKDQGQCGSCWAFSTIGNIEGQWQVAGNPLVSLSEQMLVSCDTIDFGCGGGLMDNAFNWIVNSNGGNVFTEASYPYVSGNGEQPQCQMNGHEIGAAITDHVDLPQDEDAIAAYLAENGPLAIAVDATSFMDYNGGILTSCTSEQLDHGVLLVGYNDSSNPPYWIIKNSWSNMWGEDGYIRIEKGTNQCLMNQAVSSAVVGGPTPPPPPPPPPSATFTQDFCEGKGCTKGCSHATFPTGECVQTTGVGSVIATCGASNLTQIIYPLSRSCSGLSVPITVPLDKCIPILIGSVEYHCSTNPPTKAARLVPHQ", "experiment": "Irreversible inhibition of Trypanosoma brucei rhodesiense rhodesain assessed as inhibition constant using Cbz-Phe-Arg-AMC as fluorogenic substrate by fluorometric assay"}, "[2]": {"biological_target": "Rhodesain (Trypanosoma brucei rhodesiense) (UniProt Q95PM0)", "sequence (Q95PM0 1-450)": "as the sequence (Q95PM0 whole entry) above", "experiment": "Reversible inhibition of Trypanosoma brucei rhodesiense rhodesain assessed as recovery of enzyme activity preincubated for 30 mins followed by substrate addition using Cbz-Phe-Arg-AMC as fluorogenic substrate by fluorometric 100-fold dilution assay"}, "Procathepsin L [3]": {"biological_target": "T2, Procathepsin L (Homo sapiens, UniProt P07711)", "experiment": "Inhibition of human Cathepsin L at 20 uM using Cbz-Phe-Arg-AMC as fluorogenic substrate by fluorometric assay"}, "[4]": {"biological_target": "Rhodesain (Trypanosoma brucei rhodesiense) (UniProt Q95PM0)", "experiment": "Irreversible inhibition of Trypanosoma brucei rhodesiense rhodesain assessed as no recovery of enzyme activity preincubated for 30 mins followed by substrate addition using Cbz-Phe-Arg-AMC as fluorogenic substrate by fluorometric 100-fold dilution assay"}, "Cathepsin B [5]": {"biological_target": "T1, Cathepsin B", "experiment": "Irreversible inhibition of human Cathepsin B assessed as inhibition constant using Cbz-Phe-Arg-AMC as fluorogenic substrate by fluorometric assay"}, "[6]": {"test_system": "Trypanosoma brucei brucei", "experiment": "Antitrypanosomal activity against Trypanosoma brucei brucei BS449 assessed as luminescence incubated for 48 hrs by ATPlite assay", "type": "functional, organism-based", "conditions": "BS449, 48 h"}, "[7]": {"biological_target": "T3, 20S proteasome (Homo sapiens) (UniProt P49721+P20618+P28074+P28062+P28065+P28072+P25786+P25787+P25788+P25789+P28066+P60900+O14818+Q8TAA3+P40306+A5LHX3+P49720+P28070+Q99436)", "experiment": "Inhibition of human 20S proteasome caspase-like activity at 11 uM using Cbz-Leu-Leu-Glu-AMC as fluorogenic substrate by fluorometric assay", "type": "protein-complex assay"}, "[8]": {"biological_target": "Genome polyprotein (dengue virus type 2) (UniProt P29990)", "experiment": "Inhibition of Dengue virus NS2B-NS3 protease at 11 uM using Boc-Gly-Arg-Arg-AMC as fluorogenic substrate by fluorometric assay"}, "Procathepsin L [9]": {"biological_target": "T2, Procathepsin L", "experiment": "Irreversible inhibition of human Cathepsin L assessed as inhibition constant using Cbz-Phe-Arg-AMC as fluorogenic substrate by fluorometric assay"}, "[10]": {"experiment": "Cytotoxicity against mouse J774.1 cells assessed as reduction in cell viability incubated for 48 hrs by MTT assay", "type": "toxicity, cell-based"}, "[11]": {"biological_target": "Rhodesain (Trypanosoma brucei rhodesiense) (UniProt Q95PM0)", "experiment": "Irreversible inhibition of Trypanosoma brucei rhodesiense rhodesain assessed as second order rate constant using Cbz-Phe-Arg-AMC as fluorogenic substrate by fluorometric assay"}, "[12]": {"biological_target": "Rhodesain (Trypanosoma brucei rhodesiense) (UniProt Q95PM0)", "experiment": "Irreversible inhibition of Trypanosoma brucei rhodesiense rhodesain assessed as Kinact using Cbz-Phe-Arg-AMC as fluorogenic substrate by fluorometric assay"}, "[13]": {"biological_target": "T3, 20S proteasome (Homo sapiens)", "experiment": "Inhibition of human 20S proteasome trypsin-like activity at 11 uM using Boc-Leu-Arg-Arg-AMC as fluorogenic substrate by fluorometric assay", "type": "protein-complex assay"}},
  "note": "Active and inactive are the calls of the source. The rule behind the calls is not given here.",
  "data": [
    {"compound": "O=C(NCc1ccccc1C(=O)N[C@H](/C=C(\\F)S(=O)(=O)Cc1ccccc1)CCc1ccccc1)c1ccc2c(c1)OCCO2", "values": [
      {"measurement": "inhibition", "setting": "Cathepsin B [1]", "result": "< 10", "unit": "%"},
      {"measurement": "Ki", "setting": "Rhodesain", "result": 491, "unit": "nM"},
      {"measurement": "inhibition", "setting": "[2]", "result": "Active"},
      {"measurement": "inhibition", "setting": "Procathepsin L [3]", "result": 15, "unit": "%"},
      {"measurement": "inhibition", "setting": "[4]", "result": "Active"}
    ]},
    {"compound": "O=C(NCc1ccccc1C(=O)N[C@H](/C=C/S(=O)(=O)Oc1ccccc1)CCc1ccccc1)c1ccncc1", "values": [
      {"measurement": "Ki", "setting": "Cathepsin B [5]", "result": 1010, "unit": "nM"},
      {"measurement": "Ki", "setting": "Rhodesain", "result": 9, "unit": "nM"},
      {"measurement": "EC50", "setting": "[6]", "result": 4200, "unit": "nM"},
      {"measurement": "inhibition", "setting": "[7]", "result": 41, "unit": "%"},
      {"measurement": "inhibition", "setting": "[8]", "result": 26, "unit": "%"},
      {"measurement": "Ki", "setting": "Procathepsin L [9]", "result": 1150, "unit": "nM"}
    ]},
    {"compound": "CC(=O)NCc1ccccc1C(=O)N[C@H](/C=C/S(=O)(=O)c1ccccc1)CCc1ccccc1", "values": [
      {"measurement": "CC50 at 48 h", "setting": "[10]", "result": 48000, "unit": "nM"},
      {"measurement": "Ki", "setting": "Rhodesain", "result": 4680, "unit": "nM"},
      {"measurement": "EC50", "setting": "[6]", "result": 13500, "unit": "nM"}
    ]},
    {"compound": "CN1CCN(C(=O)N[C@@H](Cc2ccccc2)C(=O)N[C@H](/C=C/S(=O)(=O)c2ccccc2)CCc2ccccc2)CC1", "note": "[K-777]", "values": [
      {"measurement": "CC50 at 48 h", "setting": "[10]", "result": 41000, "unit": "nM"},
      {"measurement": "inhibition", "setting": "[4]", "result": "Active"}
    ]},
    {"compound": "O=C(NCc1ccccc1C(=O)N[C@H](/C=C(\\F)S(=O)(=O)Cc1ccccc1)CCc1ccccc1)c1cc(F)cc(F)c1", "values": [
      {"measurement": "Ki", "setting": "Rhodesain", "result": 608, "unit": "nM"}
    ]},
    {"compound": "CC(=O)N(Cc1ccccc1C(=O)N[C@H](/C=C/S(=O)(=O)c1ccccc1)CCc1ccccc1)C(C)=O", "values": [
      {"measurement": "CC50 at 48 h", "setting": "[10]", "result": 36000, "unit": "nM"},
      {"measurement": "Ki", "setting": "Rhodesain", "result": 940, "unit": "nM"},
      {"measurement": "EC50", "setting": "[6]", "result": 5700, "unit": "nM"}
    ]},
    {"compound": "O=C(Cc1ccccc1C(=O)N[C@H](/C=C/S(=O)(=O)c1ccccc1)CCc1ccccc1)Nc1cccc(C(=O)O)c1", "values": [
      {"measurement": "Ki", "setting": "Rhodesain", "result": 17600, "unit": "nM"},
      {"measurement": "EC50", "setting": "[6]", "result": "> 40000", "unit": "nM"}
    ]},
    {"compound": "O=C(NCc1ccccc1C(=O)N[C@H](/C=C/S(=O)(=O)Cc1ccccc1)CCc1ccccc1)c1ccccc1", "values": [
      {"measurement": "Ki", "setting": "Rhodesain", "result": 389, "unit": "nM"},
      {"measurement": "Second-order inactivation rate constant (kinact/Ki)", "setting": "[11]", "result": "0.24 10^5/M/s"},
      {"measurement": "Kinact", "setting": "[12]", "result": 0.0095, "unit": "s⁻¹"}
    ]},
    {"compound": "O=C(NCc1ccccc1C(=O)N[C@H](/C=C(\\F)S(=O)(=O)c1ccccc1)CCc1ccccc1)c1cc(F)cc(F)c1", "values": [
      {"measurement": "Ki", "setting": "Rhodesain", "result": 601, "unit": "nM"}
    ]},
    {"compound": "O=C(NCc1ccccc1C(=O)N[C@H](/C=C(\\F)S(=O)(=O)c1ccccc1)CCc1ccccc1)c1ccc2c(c1)OCCO2", "values": [
      {"measurement": "inhibition", "setting": "Cathepsin B [1]", "result": "< 10", "unit": "%"},
      {"measurement": "inhibition", "setting": "[13]", "result": 14, "unit": "%"},
      {"measurement": "Ki", "setting": "Rhodesain", "result": 339, "unit": "nM"},
      {"measurement": "inhibition", "setting": "[7]", "result": 34, "unit": "%"},
      {"measurement": "inhibition", "setting": "[2]", "result": "Active"},
      {"measurement": "inhibition", "setting": "Procathepsin L [3]", "result": 31, "unit": "%"},
      {"measurement": "inhibition", "setting": "[4]", "result": "Active"}
    ]},
    {"compound": "O=C(NCc1ccccc1C(=O)N[C@H](/C=C(\\F)S(=O)(=O)Cc1ccccc1)CCc1ccccc1)c1ccncc1", "values": [
      {"measurement": "Ki", "setting": "Rhodesain", "result": 840, "unit": "nM"}
    ]},
    {"compound": "O=C(NCc1ccccc1C(=O)N[C@H](/C=C/S(=O)(=O)c1ccccc1)CCc1ccccc1)c1ccc2c(c1)OCCO2", "values": [
      {"measurement": "inhibition", "setting": "Cathepsin B [1]", "result": "< 10", "unit": "%"},
      {"measurement": "Ki", "setting": "Rhodesain", "result": 504, "unit": "nM"},
      {"measurement": "Second-order inactivation rate constant (kinact/Ki)", "setting": "[11]", "result": "0.01 10^5/M/s"},
      {"measurement": "Kinact", "setting": "[12]", "result": 0.0005, "unit": "s⁻¹"},
      {"measurement": "inhibition", "setting": "Procathepsin L [3]", "result": 41, "unit": "%"}
    ]},
    {"compound": "O=C(NCc1ccccc1C(=O)N[C@H](/C=C(\\F)S(=O)(=O)c1ccccc1)CCc1ccccc1)c1ccccc1", "values": [
      {"measurement": "inhibition", "setting": "Cathepsin B [1]", "result": "< 10", "unit": "%"},
      {"measurement": "CC50 at 48 h", "setting": "[10]", "result": 43000, "unit": "nM"},
      {"measurement": "Ki", "setting": "Rhodesain", "result": 568, "unit": "nM"},
      {"measurement": "EC50", "setting": "[6]", "result": 3300, "unit": "nM"},
      {"measurement": "inhibition", "setting": "[7]", "result": 25, "unit": "%"},
      {"measurement": "Ki", "setting": "Procathepsin L [9]", "result": 8800, "unit": "nM"}
    ]},
    {"compound": "O=C(Cc1ccccc1C(=O)N[C@H](/C=C/S(=O)(=O)c1ccccc1)CCc1ccccc1)Nc1ccc(C(=O)O)cc1", "values": [
      {"measurement": "Ki", "setting": "Rhodesain", "result": 290, "unit": "nM"},
      {"measurement": "EC50", "setting": "[6]", "result": 28000, "unit": "nM"}
    ]},
    {"compound": "O=C(O)c1ccc(C(=O)NCc2ccccc2C(=O)N[C@H](/C=C/S(=O)(=O)c2ccccc2)CCc2ccccc2)cc1", "values": [
      {"measurement": "Ki", "setting": "Rhodesain", "result": 4030, "unit": "nM"},
      {"measurement": "Second-order inactivation rate constant (kinact/Ki)", "setting": "[11]", "result": "0.0077 10^5/M/s"},
      {"measurement": "Kinact", "setting": "[12]", "result": 0.0031, "unit": "s⁻¹"}
    ]},
    {"compound": "O=C(NCc1ccccc1C(=O)N[C@H](/C=C/S(=O)(=O)Cc1ccccc1)CCc1ccccc1)c1ccc2c(c1)OCCO2", "values": [
      {"measurement": "inhibition", "setting": "Cathepsin B [1]", "result": "< 10", "unit": "%"},
      {"measurement": "Ki", "setting": "Rhodesain", "result": 59, "unit": "nM"},
      {"measurement": "Second-order inactivation rate constant (kinact/Ki)", "setting": "[11]", "result": "0.64 10^5/M/s"},
      {"measurement": "Kinact", "setting": "[12]", "result": 0.0038, "unit": "s⁻¹"},
      {"measurement": "inhibition", "setting": "Procathepsin L [3]", "result": 39, "unit": "%"}
    ]}
  ]
}
